Test results published in patent US8937088B2, “Ureas for the treatment and prevention of cancer” (Astar Biotech LLC, priority 2011, dated 2015).
Read-outs that look alike come from different tables or passages of the source.

Experiments:
BRAF = BRAF (Homo sapiens, UniProt P15056); assay: In vitro kinase assay (Invitrogen SelectScreen Profiling Service), BRAF; assay type: biochemical
Method: (§1) Biological Test 1. In Vitro Kinase Assay for BRAF, FLT3 and KDR(VEGFR2) The inhibitory activities of the compounds of the invention were measured by Invitrogen's SelectScreen® Profiling Service.

FLT3 = molecular target: T1, FLT3 (Homo sapiens, UniProt P36888); assay: In vitro kinase assay (Invitrogen SelectScreen Profiling Service), FLT3; assay type: biochemical; conditions: FLT3, 0.1 μM
T1 sequence (P36888 27-993): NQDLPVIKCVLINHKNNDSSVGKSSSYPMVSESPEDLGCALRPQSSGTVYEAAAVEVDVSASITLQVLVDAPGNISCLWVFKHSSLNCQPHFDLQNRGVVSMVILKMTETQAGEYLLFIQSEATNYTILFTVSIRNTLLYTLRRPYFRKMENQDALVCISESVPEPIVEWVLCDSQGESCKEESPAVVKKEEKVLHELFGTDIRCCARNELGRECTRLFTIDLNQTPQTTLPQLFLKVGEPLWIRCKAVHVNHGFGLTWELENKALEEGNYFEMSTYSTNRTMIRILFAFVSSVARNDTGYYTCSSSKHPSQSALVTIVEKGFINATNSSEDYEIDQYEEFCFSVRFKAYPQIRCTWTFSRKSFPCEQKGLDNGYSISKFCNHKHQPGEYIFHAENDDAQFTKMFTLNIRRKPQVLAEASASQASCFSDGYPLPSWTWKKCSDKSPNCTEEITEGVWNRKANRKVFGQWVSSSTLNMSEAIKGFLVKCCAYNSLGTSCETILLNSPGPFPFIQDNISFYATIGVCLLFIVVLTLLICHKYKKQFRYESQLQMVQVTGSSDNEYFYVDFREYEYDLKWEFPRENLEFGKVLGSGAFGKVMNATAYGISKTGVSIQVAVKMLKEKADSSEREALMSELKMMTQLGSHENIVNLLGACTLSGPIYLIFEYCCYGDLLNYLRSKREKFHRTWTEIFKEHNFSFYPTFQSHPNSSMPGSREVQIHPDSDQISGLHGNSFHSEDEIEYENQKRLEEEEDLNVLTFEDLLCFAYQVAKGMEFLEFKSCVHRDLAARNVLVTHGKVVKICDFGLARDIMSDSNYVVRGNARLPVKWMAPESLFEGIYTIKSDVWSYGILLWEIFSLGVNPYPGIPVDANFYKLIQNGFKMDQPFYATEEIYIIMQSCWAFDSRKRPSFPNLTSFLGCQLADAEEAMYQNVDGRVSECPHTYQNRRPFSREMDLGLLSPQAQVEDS
Method: as §1

KDR(VEGFR2) = KDR(VEGFR2) (Homo sapiens, UniProt P35968); assay: In vitro kinase assay (Invitrogen SelectScreen Profiling Service), KDR; assay type: biochemical
Sequence of KDR(VEGFR2) (P35968 20-1356): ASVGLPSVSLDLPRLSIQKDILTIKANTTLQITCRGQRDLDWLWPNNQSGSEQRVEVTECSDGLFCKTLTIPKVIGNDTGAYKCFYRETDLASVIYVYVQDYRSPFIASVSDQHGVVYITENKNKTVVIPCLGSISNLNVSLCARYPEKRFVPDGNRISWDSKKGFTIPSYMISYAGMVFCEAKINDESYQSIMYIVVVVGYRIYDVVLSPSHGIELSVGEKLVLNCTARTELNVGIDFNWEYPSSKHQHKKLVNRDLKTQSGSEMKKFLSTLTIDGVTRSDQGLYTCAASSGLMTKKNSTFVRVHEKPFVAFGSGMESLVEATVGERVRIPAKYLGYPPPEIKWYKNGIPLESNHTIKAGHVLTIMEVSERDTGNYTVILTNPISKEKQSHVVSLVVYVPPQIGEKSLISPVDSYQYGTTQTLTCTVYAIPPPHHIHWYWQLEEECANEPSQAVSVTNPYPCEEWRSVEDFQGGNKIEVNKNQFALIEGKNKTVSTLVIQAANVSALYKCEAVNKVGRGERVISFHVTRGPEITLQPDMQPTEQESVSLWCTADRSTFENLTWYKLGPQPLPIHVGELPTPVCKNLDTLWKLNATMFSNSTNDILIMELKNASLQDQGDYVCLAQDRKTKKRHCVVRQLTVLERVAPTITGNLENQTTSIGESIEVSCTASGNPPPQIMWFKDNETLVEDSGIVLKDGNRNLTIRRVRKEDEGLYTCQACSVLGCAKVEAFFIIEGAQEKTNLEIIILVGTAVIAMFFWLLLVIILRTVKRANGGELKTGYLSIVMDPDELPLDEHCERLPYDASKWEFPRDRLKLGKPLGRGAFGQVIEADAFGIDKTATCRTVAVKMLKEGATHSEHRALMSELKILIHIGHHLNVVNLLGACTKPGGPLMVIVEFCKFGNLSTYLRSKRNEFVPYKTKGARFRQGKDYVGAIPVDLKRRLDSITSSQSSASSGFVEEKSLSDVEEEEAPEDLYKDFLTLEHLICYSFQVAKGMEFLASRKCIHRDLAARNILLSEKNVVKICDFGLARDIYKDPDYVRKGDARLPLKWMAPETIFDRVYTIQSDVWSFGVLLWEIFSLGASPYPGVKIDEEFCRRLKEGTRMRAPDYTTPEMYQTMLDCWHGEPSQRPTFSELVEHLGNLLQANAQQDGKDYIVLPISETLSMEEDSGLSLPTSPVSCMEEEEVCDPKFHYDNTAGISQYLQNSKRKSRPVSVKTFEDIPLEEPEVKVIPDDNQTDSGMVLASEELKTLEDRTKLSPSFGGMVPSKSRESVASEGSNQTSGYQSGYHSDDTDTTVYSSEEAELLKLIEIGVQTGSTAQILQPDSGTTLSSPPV
Method: as §1

[1] = system: Hep3B (human hepatoma cell line); assay: Cell death detection, trypan blue exclusion assay, Hep3B; assay type: cell-based; conditions: 5-day treatment
Method: (§2) Biological Test 2. Cell Death Detection Using Trypan Blue Exclusion Assay.
(§3) After drug treatment, cells were harvested by trypsinization with trypsin/EDTA for 10 min at 37° C. As some apoptotic cells detached from the culture substratum into the medium, these cells were also collected by centrifugation of the medium at 1,200 rpm for 5 min. The pooled cell pellets were resuspended and mixed with trypan blue dye. After Trypan blue stain was done, cells were counted by using a light microscope and a hemocytometer. Blue dye-incorporating cells were scored as being dead. Five hundred cells from randomly chosen fields were counted, and the number of dead cells was counted and expressed as a percentage of the total number of cells counted as shown in Tables 2 to 8 below.

[2] = system: HepG2 (human Hepatocellular carcinoma cell line); assay: Cell death detection, trypan blue exclusion assay, HepG2; assay type: cell-based; conditions: HepG2, 5-day treatment
Method: as §2, §3

[3] = system: HT29 (human colon adenocarcinoma cell line); assay: Cell death detection, trypan blue exclusion assay, HT29; assay type: cell-based; conditions: HT29, 5-day treatment
Method: as §2, §3

[4] = system: HUH7 (human hepatoma cell line); assay: Cell death detection, trypan blue exclusion assay, HUH7; assay type: cell-based; conditions: Huh-7, 168 h, HUH7, 7-day treatment, read-out: Cell Death (%) at Tested Concentration
Method: as §2, §3

[5] = system: LNCaP (human prostate adenocarcinoma cell line); assay: Cell death detection, trypan blue exclusion assay, LNCaP; assay type: cell-based; conditions: read-out: Cell Death (%) at Tested Concentration
Method: as §2, §3

[6] = system: HUH7 (human hepatoma cell line); assay: Cell death detection, trypan blue exclusion assay, HUH7, in combination with AZD-6244; assay type: cell-based; conditions: HUH7, 6-day treatment; for Cell Death (%) in combination with AZD-6244: compound 0.5 μM
Method: as §2, §3

Sequence of BRAF (P15056 whole entry): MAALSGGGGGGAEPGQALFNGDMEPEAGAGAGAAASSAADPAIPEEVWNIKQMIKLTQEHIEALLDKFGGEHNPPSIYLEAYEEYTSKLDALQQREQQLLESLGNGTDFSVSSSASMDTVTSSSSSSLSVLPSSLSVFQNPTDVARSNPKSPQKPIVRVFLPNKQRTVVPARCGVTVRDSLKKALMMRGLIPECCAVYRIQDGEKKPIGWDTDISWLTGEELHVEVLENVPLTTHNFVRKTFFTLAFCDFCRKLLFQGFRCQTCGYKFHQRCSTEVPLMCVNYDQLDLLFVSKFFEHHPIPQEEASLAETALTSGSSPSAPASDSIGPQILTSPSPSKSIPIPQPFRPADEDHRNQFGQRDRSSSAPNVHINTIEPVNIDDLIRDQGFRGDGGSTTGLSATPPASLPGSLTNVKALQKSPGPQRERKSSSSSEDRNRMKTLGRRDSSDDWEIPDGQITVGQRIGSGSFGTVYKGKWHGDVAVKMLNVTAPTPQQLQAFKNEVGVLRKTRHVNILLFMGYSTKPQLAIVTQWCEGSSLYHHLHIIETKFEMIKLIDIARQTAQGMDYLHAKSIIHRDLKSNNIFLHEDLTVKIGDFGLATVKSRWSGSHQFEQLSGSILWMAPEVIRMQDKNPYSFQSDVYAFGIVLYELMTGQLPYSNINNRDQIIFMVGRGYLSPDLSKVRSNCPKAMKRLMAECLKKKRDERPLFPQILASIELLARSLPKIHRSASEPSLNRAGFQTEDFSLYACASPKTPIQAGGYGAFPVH

Compound | Cell Death (%) at Tested Concentration ([1]; 0.25 uM) | Cell Death (%) at Tested Concentration ([1]; 3.0 uM) | Cell Death (%) at Tested Concentration ([1]; 5.0 uM) | Cell Death (%) at Tested Concentration ([2]; 0.25 uM) | Cell Death (%) at Tested Concentration ([2]; 3.0 uM) | cytotoxicity at 1 µM [4] | cytotoxicity at 2.5 µM [4] | cytotoxicity at 5 µM [4] | cytotoxicity at 7.5 µM [4] | cytotoxicity at 10 µM [4] | cytotoxicity at 1 µM ([5]; 72 h, 3-day treatment) | cytotoxicity at 2.5 µM ([5]; 72 h, 3-day treatment) | cytotoxicity at 5 µM ([5]; 72 h, 3-day treatment) | cytotoxicity at 7.5 µM ([5]; 72 h, 3-day treatment) | cytotoxicity at 10 µM ([5]; 72 h, 3-day treatment) | cytotoxicity at 1 µM ([5]; 168 h, 7-day treatment) | cytotoxicity at 2.5 µM ([5]; 168 h, 7-day treatment) | cytotoxicity at 5 µM ([5]; 168 h, 7-day treatment) | cytotoxicity at 7.5 µM ([5]; 168 h, 7-day treatment) | cytotoxicity at 10 µM ([5]; 168 h, 7-day treatment) | also measured
CNC(=O)c1cc(Oc2ccc(NC(=O)Nc3cccc(S(F)(F)(F)(F)F)c3)cc2)ccn1 [Example 1, N-methyl-4-[4-({[3-(pentafluoro-λ^6-sulfanyl)phenyl]carbamoyl}amino)phenoxy]pyridine-2-carboxamide] | 3.8% | 22.3% | 92.7% | 2.6% | 32.4% | 2% | 5.1% | 18.3% | 52.7% | 72.3% | 1.6% | 1.5% | 1.3% | 7.3% | 62.5% | 1.6% | 2.8% | 2.8% | 99% | 99% | inhibition at 0.1 µM (BRAF): 18%; inhibition at 0.1 µM (FLT3): 85%; inhibition at 0.1 µM (KDR(VEGFR2)): 79%; Cell Death (%) at Tested Concentration ([2]; 5.0 uM): 84.5%; Cell Death (%) at Tested Concentration ([3]; 2.5 uM): 12.4%; Cell Death (%) at Tested Concentration ([3]; 5.0 uM): 14.5%; Cell Death (%) at Tested Concentration ([3]; 10 uM): 68.7%; Cell Death (%) in combination with AZD-6244 ([6]; AZD-6244 0 μM): 2.3%; Cell Death (%) in combination with AZD-6244 ([6]; AZD-6244 0.5 μM): 99%
CNC(=O)c1cc(Oc2ccc(NC(=O)Nc3cc(S(F)(F)(F)(F)F)ccc3Cl)cc2)ccn1 [Example 5, 4-[4-({[2-chloro-5-(pentafluoro-λ^6-sulfanyl)phenyl]carbamoyl}amino)phenoxy]-N-methylpyridine-2-carboxamide] |  |  |  |  |  | 1.7% | 3.1% | 4.3% | 17.2% | 19.8% | 1% | 1.5% | 1.4% | 2.1% | 7.6% | 1.8% | 1.9% | 2.3% | 4.6% | 14.7% | 
CNC(=O)c1cc(Oc2ccc(NC(=O)Nc3cc(S(F)(F)(F)(F)F)ccc3Cl)c(F)c2)ccn1 [Example 6, 4-[4-({[2-chloro-5-(pentafluoro-λ^6-sulfanyl)phenyl]carbamoyl}amino)-3-fluorophenoxy]-N-methylpyridine-2-carboxamide] | 3.9% | 38.4% | 89.6% | 2.6% | 90.7% | 2% | 2.2% | 7.4% | 32.1% | 35.4% | 1.1% | 1.3% | 1.2% | 3.6% | 4.3% | 1.7% | 1.9% | 2.4% | 4.8% | 13.4% | Cell Death (%) at Tested Concentration ([2]; 5.0 uM): 99%; Cell Death (%) at Tested Concentration ([3]; 2.5 uM): 11.7%; Cell Death (%) at Tested Concentration ([3]; 5.0 uM): 13.4%; Cell Death (%) at Tested Concentration ([3]; 10 uM): 22.1%; Cell Death (%) in combination with AZD-6244 ([6]; AZD-6244 0 μM): 2.1%; Cell Death (%) in combination with AZD-6244 ([6]; AZD-6244 0.5 μM): 99%
CNC(=O)c1cc(Oc2ccc(NC(=O)Nc3ccc(Cl)c(S(F)(F)(F)(F)F)c3)cc2)ccn1 [Example 3, 4-[4-({[4-chloro-3-(pentafluoro-λ^6-sulfanyl)phenyl]carbamoyl}amino)phenoxy]-N-methylpyridine-2-carboxamide] | 3.3% | 25.6% | 90.7% | 2.7% | 4.2% | 2.7% | 4.5% | 53.8% | 79.6% | 87.6% | 1.3% | 1.9% | 4.3% | 13.4% | 91.8% | 2.3% | 2.8% | 99% | 99% | 99% | inhibition at 0.1 µM (BRAF): 11%; inhibition at 0.1 µM (FLT3): 72%; inhibition at 0.1 µM (KDR(VEGFR2)): 64%; Cell Death (%) at Tested Concentration ([2]; 5.0 uM): 14.6%; Cell Death (%) at Tested Concentration ([3]; 2.5 uM): 11.4%; Cell Death (%) at Tested Concentration ([3]; 5.0 uM): 16.7%; Cell Death (%) at Tested Concentration ([3]; 10 uM): 30.7%; Cell Death (%) in combination with AZD-6244 ([6]; AZD-6244 0 μM): 1.9%; Cell Death (%) in combination with AZD-6244 ([6]; AZD-6244 0.5 μM): 94.6%
CNC(=O)c1cc(Oc2ccc(NC(=O)Nc3cccc(S(F)(F)(F)(F)F)c3)c(F)c2)ccn1 [Example 2, 4-[3-fluoro-4-({[3-(pentafluoro-λ^6-sulfanyl)phenyl]carbamoyl}amino)phenoxy]-N-methylpyridine-2-carboxamide] | 4.1% | 92.7% | 98.5% | 2.2% | 94.7% | 2.4% | 7.3% | 42.6% | 72.6% | 75.2% | 1.7% | 1.8% | 1.6% | 4.2% | 83.7% | 1.5% | 2.7% | 2.5% | 17.3% | 99% | inhibition at 0.1 µM (BRAF): 14%; inhibition at 0.1 µM (FLT3): 71%; inhibition at 0.1 µM (KDR(VEGFR2)): 76%; Cell Death (%) at Tested Concentration ([2]; 5.0 uM): 99%; Cell Death (%) at Tested Concentration ([3]; 2.5 uM): 12.3%; Cell Death (%) at Tested Concentration ([3]; 5.0 uM): 14.7%; Cell Death (%) at Tested Concentration ([3]; 10 uM): 24.8%; Cell Death (%) in combination with AZD-6244 ([6]; AZD-6244 0 μM): 3.6%; Cell Death (%) in combination with AZD-6244 ([6]; AZD-6244 0.5 μM): 99%
Cn1cnc2c(F)c(Nc3ccc(Br)cc3Cl)c(C(=O)NOCCO)cc21 [AZD-6244, reference compound] |  |  |  |  |  |  |  |  |  |  |  |  |  |  |  |  |  |  |  |  | Cell Death (%), AZD-6244 alone ([6]; AZD-6244 0.5 μM, no other compound (0)): 2.3%
